For ten molecules, Ki and Efficacy results are on record in ChEMBL document CHEMBL2040748, “N-4-t-Butylbenzyl 2-(4-methylsulfonylaminophenyl) propanamide TRPV1 antagonists: Structure-activity relationships in the A-region” (Bioorg Med Chem, 2012).

The target of experiment [1] is T1, Transient receptor potential cation channel subfamily V member 1 (Homo sapiens, UniProt Q8NER1). The experiment in a line: Displacement of [3H]RTX from human TRPV1 receptor expressed in CHO cells after 60 mins by scintillation counting. Format: cell-based. For orientation: Loss of bound radioactivity is the signal in a displacement assay; it reports binding, not function.

Experiment [2] has as its target T2, Transient receptor potential cation channel subfamily V member 1 (Rattus norvegicus, UniProt O35433). The experiment in a line: Antagonist activity at rat TRPV1 receptor expressed in CHO cells assessed as decrease in capsaicin-induced intracellular 45Ca2+ uptake after 1 hr by […] analysis. It counts as functional, cell-based.
For experiment [3], the target named is T1, Transient receptor potential cation channel subfamily V member 1. The experiment in a line: Antagonist activity at human TRPV1 receptor expressed in CHO cells assessed as decrease in capsaicin-induced intracellular 45Ca2+ uptake after 1 hr by […] analysis. Format: functional, cell-based.
The target is the same in experiment [4]. The experiment in a line: Antagonist activity at human TRPV1 receptor expressed in CHO cells assessed as decrease in pH-induced intracellular 45Ca2+ uptake after 1 hr by […] analysis. It counts as functional, cell-based.
The target of experiment [5] is T2, Transient receptor potential cation channel subfamily V member 1. The experiment in a line: Displacement of [3H]RTX from rat TRPV1 receptor expressed in CHO cells after 60 mins by scintillation counting. It counts as cell-based.
Experiment [6] deals with Transient receptor potential cation channel subfamily V member 1 (Rattus norvegicus) (UniProt O35433). The experiment in a line: Antagonist activity at rat TRPV1 receptor expressed in CHO cells assessed as decrease in capsaicin-induced intracellular 45Ca2+ uptake after 1 hr by […] analysis relative to untreated control. Format: functional, cell-based.

The structures appear in SMILES notation.

T1 sequence (Q8NER1 whole entry): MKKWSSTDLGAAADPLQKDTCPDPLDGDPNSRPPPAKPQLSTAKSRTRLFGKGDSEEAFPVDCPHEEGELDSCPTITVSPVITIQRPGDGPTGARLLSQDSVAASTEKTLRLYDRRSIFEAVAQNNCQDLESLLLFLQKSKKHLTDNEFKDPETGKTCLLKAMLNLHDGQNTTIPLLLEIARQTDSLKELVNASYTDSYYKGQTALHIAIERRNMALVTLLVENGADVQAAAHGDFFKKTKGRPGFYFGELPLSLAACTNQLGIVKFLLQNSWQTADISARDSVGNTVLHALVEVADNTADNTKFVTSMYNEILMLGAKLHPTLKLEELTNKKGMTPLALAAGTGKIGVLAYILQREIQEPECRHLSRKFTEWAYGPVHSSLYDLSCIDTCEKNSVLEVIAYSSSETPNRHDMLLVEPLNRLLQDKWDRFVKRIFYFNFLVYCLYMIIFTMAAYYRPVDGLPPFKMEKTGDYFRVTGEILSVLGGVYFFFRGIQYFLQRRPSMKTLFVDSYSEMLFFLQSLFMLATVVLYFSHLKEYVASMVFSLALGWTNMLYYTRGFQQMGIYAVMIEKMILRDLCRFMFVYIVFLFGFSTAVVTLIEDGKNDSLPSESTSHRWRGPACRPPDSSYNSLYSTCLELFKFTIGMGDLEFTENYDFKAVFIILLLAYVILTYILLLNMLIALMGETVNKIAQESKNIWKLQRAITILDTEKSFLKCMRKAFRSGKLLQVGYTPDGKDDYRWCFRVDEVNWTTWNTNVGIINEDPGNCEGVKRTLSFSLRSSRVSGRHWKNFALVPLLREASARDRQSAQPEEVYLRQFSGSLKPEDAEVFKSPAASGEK
T2 sequence (O35433 whole entry): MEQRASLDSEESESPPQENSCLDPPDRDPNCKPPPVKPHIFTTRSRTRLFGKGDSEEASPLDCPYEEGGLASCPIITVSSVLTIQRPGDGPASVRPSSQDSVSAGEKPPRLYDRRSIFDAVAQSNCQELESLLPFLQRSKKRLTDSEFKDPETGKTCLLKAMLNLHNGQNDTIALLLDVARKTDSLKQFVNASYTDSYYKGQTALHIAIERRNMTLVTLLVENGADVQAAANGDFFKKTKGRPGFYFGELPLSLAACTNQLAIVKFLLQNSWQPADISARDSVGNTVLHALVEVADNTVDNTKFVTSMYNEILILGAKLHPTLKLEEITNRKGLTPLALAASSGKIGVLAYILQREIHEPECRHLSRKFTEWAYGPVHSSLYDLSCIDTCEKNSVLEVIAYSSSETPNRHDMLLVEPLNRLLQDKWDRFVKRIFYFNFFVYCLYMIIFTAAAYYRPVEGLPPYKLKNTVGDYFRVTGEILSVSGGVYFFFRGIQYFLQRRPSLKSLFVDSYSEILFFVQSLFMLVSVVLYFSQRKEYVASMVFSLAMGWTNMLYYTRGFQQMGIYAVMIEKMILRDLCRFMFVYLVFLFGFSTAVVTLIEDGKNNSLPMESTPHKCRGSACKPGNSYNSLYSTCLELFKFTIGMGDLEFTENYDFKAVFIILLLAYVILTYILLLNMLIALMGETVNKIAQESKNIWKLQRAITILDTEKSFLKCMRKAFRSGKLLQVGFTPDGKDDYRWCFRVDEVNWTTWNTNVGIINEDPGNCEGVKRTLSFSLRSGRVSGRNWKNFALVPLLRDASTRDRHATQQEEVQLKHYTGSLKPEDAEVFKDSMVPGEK
Sequence of Transient receptor potential cation channel subfamily V member 1 (Rattus norvegicus) (O35433 whole entry): as above

On to `C[C@@H](C(=O)NCc1ccc(C(C)(C)C)cc1)c1ccc(NS(C)(=O)=O)c(F)c1`, for which the Ki (as a rule, a dissociation constant, usually derived from enzyme kinetics or from competition with a known ligand) in experiment [1] stood at 2590 nM; in experiment [2], 186 nM; in experiment [3] it was 217 nM; in experiment [4] it was 440 nM; in experiment [5] (read-out: Ki), 750 nM.

Take `CC(C(=O)NCc1ccc(C(C)(C)C)cc1)c1ccc(NS(C)(=O)=O)c(N2CCOCC2)c1` (centres undefined): in experiment [5] (cho), the inhibition constant (Ki) result is on record as “Active”.

For the molecule `CC(C(=O)NCc1ccc(C(C)(C)C)cc1)c1ccc(NS(C)(=O)=O)c(N2CCN(C(=O)OC(C)(C)C)CC2)c1` (centres undefined), the Efficacy in experiment [6] came to 13%. Moreover, in experiment [5] (read-out: Ki), the Ki was 7000 nM.

As to `CC(C(=O)NCc1ccc(C(C)(C)C)cc1)c1ccc(NS(C)(=O)=O)c(C(=O)NCc2ccccc2)c1` (centres undefined), the Efficacy in experiment [6] is 23%.

Consider `CC(C(=O)NCc1ccc(C(C)(C)C)cc1)c1ccc(NS(C)(=O)=O)c(C(=O)OC(C)(C)C)c1` (centres undefined), for which the Efficacy in experiment [6] amounted to 16%.

As for `CC(C(=O)NCc1ccc(C(C)(C)C)cc1)c1ccc(NS(C)(=O)=O)c(F)c1` (racemic), the Ki in experiment [1] was determined as 89 nM; in experiment [2], 7.6 nM; in experiment [3], 5.1 nM; in experiment [4], 12.7 nM; in experiment [5] (read-out: Ki), 46.2 nM.

Regarding `COc1cc(CNC(=S)NCc2ccc(C(C)(C)C)cc2)ccc1NS(C)(=O)=O`, the Efficacy in experiment [6] worked out at 84%.

Regarding `C[C@H](C(=O)NCc1ccc(C(C)(C)C)cc1)c1ccc(NS(C)(=O)=O)c(F)c1`, the Ki in experiment [1] turned out to be 15.8 nM; in experiment [2] it was 4.16 nM; in experiment [3], 0.49 nM; in experiment [4], 8.3 nM; in experiment [5] (read-out: Ki) it was 24.4 nM.

Regarding `Cc1cc(C(C)C(=O)NCc2ccc(C(C)(C)C)cc2)ccc1NS(C)(=O)=O` (centres undefined), the values for the inhibition constant Ki in experiment [2] and in experiment [5] (read-out: Ki) were 18.9 nM and 32.8 nM, respectively.

Regarding `CC(C(=O)NCc1ccc(C(C)(C)C)cc1)c1ccc(NS(C)(=O)=O)c(N2CCCCC2)c1` (centres undefined), the inhibitory constant (Ki) result in experiment [5] (cho) was “Active”.
